The text below walks through data of ChEMBL document CHEMBL1136143, “Synthesis and activity of novel benzoxazole derivatives of mannopeptimycin glycopeptide antibiotics” (2003).

In experiment [1] the test system is Staphylococcus aureus. The experiment in a line: In vitro minimum inhibitory concentration against glycopeptide tntermediate Staphylococcus aureus (GC 3066). Type of experiment: functional.
Experiment [2] deals with Staphylococcus haemolyticus. The experiment in a line: In vitro minimum inhibitory concentration against methicillin-resistant Coagulase-negative Staphylococci (MRCNS) (GC 4547)). The experiment is classed as functional.
Experiment [3] concerns Enterococcus faecalis. The experiment in a line: In vitro minimum inhibitory concentration against vancomycin-susceptible Enterococcus faecalis (GC 4552). The experiment is classed as functional.
Experiment [4] relates to Enterococcus faecalis. The experiment in a line: In vitro minimum inhibitory concentration against vancomycin-susceptible Enterococcus faecalis (GC 4553). The experiment is classed as functional.
Experiment [5] deals with Enterococcus faecalis. The experiment in a line: In vitro minimum inhibitory concentration against vancomycin-susceptible Enterococcus faecalis (GC 4554). The experiment is classed as functional.
Experiment [6] relates to Enterococcus faecium. The experiment in a line: In vitro minimum inhibitory concentration against vancomycin-susceptible Enterococcus faecium (GC 4557).
Experiment [7] deals with Staphylococcus aureus. The experiment in a line: In vitro minimum inhibitory concentration against Methicillin-susceptible Staphylococcus aureus (GC 4543). The experiment is classed as functional.
The test system of experiment [8] is Streptococcus pneumoniae. The experiment in a line: In vitro minimum inhibitory concentration against Penicillin resistant Streptococcus pneumoniae (GC 1894). Type of experiment: functional.
For experiment [9], the system named is Staphylococcus haemolyticus. The experiment in a line: In vitro minimum inhibitory concentration against methicillin-resistant Coagulase-negative Staphylococci (MRCNS) hemolyticu (GC 4546)). The experiment is classed as functional.
Experiment [10] relates to Staphylococcus aureus. The experiment in a line: In vitro minimum inhibitory concentration against glycopeptide tntermediate Staphylococcus aureus (GC 3051). The experiment is classed as functional.
A further experiment deals with Bacillus cereus. The experiment in a line: In vitro minimum inhibitory concentration against Bacillus cereus (GC 4561) assay organism. The experiment is classed as functional.
The subject of experiment [11] is Enterococcus faecium. The experiment in a line: In vitro minimum inhibitory concentration against vancomycin-resistant Enterococcus faecium (GC 4558).
In experiment [12] the test system is Staphylococcus haemolyticus. The experiment in a line: In vitro minimum inhibitory concentration against methicillin-susceptible Coagulase-negative Staphylococci (MSCNS) (GC 6257). The experiment is classed as functional.
The subject of experiment [13] is Staphylococcus haemolyticus. The experiment in a line: In vitro minimum inhibitory concentration against methicillin-susceptible Coagulase-negative Staphylococci (MSCNS) (GC 4549)). The experiment is classed as functional.
In a further experiment the test system is Streptococcus pyogenes. The experiment in a line: In vitro minimum inhibitory concentration against Streptococcus pyogenes (GC 4563). The experiment is classed as functional.
Experiment [14] deals with Staphylococcus aureus. The experiment in a line: In vitro minimum inhibitory concentration against Methicillin-susceptible Staphylococcus aureus(GC 4545). The experiment is classed as functional.
For experiment [15], the system named is Enterococcus faecalis. The experiment in a line: In vitro minimum inhibitory concentration against vancomycin-susceptible Enterococcus faecalis (GC 2691). The experiment is classed as functional.
Experiment [16] deals with Enterococcus faecalis. The experiment in a line: In vitro minimum inhibitory concentration against vancomycin-resistant Enterococcus faecalis (GC 6189). Type of experiment: functional.
Experiment [17] has as its system Staphylococcus aureus. The experiment in a line: In vitro minimum inhibitory concentration against Methicillin-resistant Staphylococcus aureus (GC 4542). Type of experiment: functional.
The subject of experiment [18] is Staphylococcus aureus. The experiment in a line: In vitro minimum inhibitory concentration against Staphylococcus aureus (10strains, including MRSA). The experiment is classed as functional.
The test system of experiment [19] is Enterococcus faecium. The experiment in a line: In vitro minimum inhibitory concentration against vancomycin-resistant Enterococcus faecium (GC 2243).
The subject of experiment [20] is Staphylococcus haemolyticus. The experiment in a line: In vitro minimum inhibitory concentration against methicillin-resistant Coagulase-negative Staphylococci (MRCNS) (GC 4548)). The experiment is classed as functional.
Experiment [21] deals with Staphylococcus aureus. The experiment in a line: In vitro minimum inhibitory concentration against Methicillin-resistant Staphylococcus aureus (GC 1131). The experiment is classed as functional.
Experiment [22] relates to Streptococcus pneumoniae. The experiment in a line: In vitro minimum inhibitory concentration against Penicillin susceptible Streptococcus pneumoniae (GC 6242). Type of experiment: functional.
The test system of another experiment is Streptococcus agalactiae. The experiment in a line: In vitro minimum inhibitory concentration against Streptococcus agalactiae (GC4564).
Experiment [23] has as its system Staphylococcus haemolyticus. The experiment in a line: In vitro minimum inhibitory concentration against methicillin-susceptible Coagulase-negative Staphylococci (MSCNS) (GC 4551). Type of experiment: functional.
Experiment [24] relates to Staphylococcus aureus. The experiment in a line: In vitro minimum inhibitory concentration against Methicillin-resistant Staphylococcus aureus(GC 4541). The experiment is classed as functional.
Experiment [25] has as its system Staphylococcus aureus. The experiment in a line: In vitro minimum inhibitory concentration against Methicillin-susceptible Staphylococcus aureus(GC 4544). Type of experiment: functional.
The next experiment concerns Streptococcus. The experiment in a line: In vitro minimum inhibitory concentration against Streptococcus Species (5 strains, including PRSP). Type of experiment: functional.
The next experiment deals with Enterococcus sp. The experiment in a line: In vitro minimum inhibitory concentration against Enterococcus species (11 strains, including VRE). Type of experiment: functional.
Experiment [26] concerns Enterococcus faecium. The experiment in a line: In vitro minimum inhibitory concentration against vancomycin-susceptible Enterococcus faecium (GC 4556).
Experiment [27] relates to Enterococcus faecalis. The experiment in a line: In vitro minimum inhibitory concentration against vancomycin-resistant Enterococcus faecalis (GC 3059). The experiment is classed as functional.
The next experiment has as its system Micrococcus luteus. The experiment in a line: In vitro minimum inhibitory concentration against Micrococcus lutea (GC 4562). The experiment is classed as functional.
Experiment [28] deals with Streptococcus pneumoniae. The experiment in a line: In vitro minimum inhibitory concentration against Penicillin susceptible Streptococcus pneumoniae (GC 4565).
Experiment [29] concerns Enterococcus faecalis. The experiment in a line: In vitro minimum inhibitory concentration against vancomycin-resistant Enterococcus faecalis (GC 2242). Type of experiment: functional.
The test system of experiment [30] is Enterococcus faecalis. The experiment in a line: In vitro minimum inhibitory concentration against vancomycin-susceptible Enterococcus faecalis (GC 4555). Type of experiment: functional.
Experiment [31] has as its system Staphylococcus aureus. The experiment in a line: In vitro minimum inhibitory concentration against Methicillin-susceptible Staphylococcus aureus (GC 2216). Type of experiment: functional.
Experiment [32] deals with Staphylococcus aureus. The experiment in a line: In vitro minimum inhibitory concentration against Staphylococcus aureus. The experiment is classed as functional.

≈ marks a conversion by molar mass, not a printed value.

Usually MIC stands for the lowest concentration found to suppress growth. A high value points to weaker potency. As to `C[C@@H](c1ccccc1)[C@@H]1NC(=O)CNC(=O)[C@H](CO)NC(=O)[C@@H]([C@@H](O)[C@@H]2CN=C(N)N2[C@H]2O[C@H](CO)[C@@H](O)[C@H](O)[C@@H]2O)NC(=O)[C@H]([C@H](O)[C@@H]2CN=C(N)N2)NC(=O)[C@@H](Cc2ccc3nc(-c4ccc(N(C)C)cc4)oc3c2)NC1=O`, the MIC against Staphylococcus aureus [1] amounted to 8 µg/mL (≈ 7.17 µM); in experiment [2], 4 µg/mL (≈ 3.59 µM); in the experiment on Enterococcus faecalis [3] it was 64 µg/mL (≈ 57.4 µM); against Enterococcus faecalis [4], 16 µg/mL (≈ 14.3 µM); in the experiment with Enterococcus faecalis [5], 32 µg/mL (≈ 28.7 µM); in the experiment with Enterococcus faecium [6] it was 8 µg/mL (≈ 7.17 µM). Moreover, the MIC was 8 µg/mL (≈ 7.17 µM) in the experiment on Staphylococcus aureus [7]; 32 µg/mL (≈ 28.7 µM) against Streptococcus pneumoniae [8]; 4 µg/mL (≈ 3.59 µM) in experiment [9]; 8 µg/mL (≈ 7.17 µM) in the experiment with Staphylococcus aureus [10]; 32 µg/mL (≈ 28.7 µM) against Bacillus cereus; 16 µg/mL (≈ 14.3 µM) with Enterococcus faecium [11]. The MIC in [12] is 4 µg/mL (≈ 3.59 µM); in experiment [13], 2 µg/mL (≈ 1.79 µM); in the experiment with Streptococcus pyogenes, 16 µg/mL (≈ 14.3 µM); with Staphylococcus aureus [14], 8 µg/mL (≈ 7.17 µM); in the experiment on Enterococcus faecalis [15] it was 32 µg/mL (≈ 28.7 µM); with Enterococcus faecalis [16] it was 32 µg/mL (≈ 28.7 µM). In addition, the MIC in the experiment on Staphylococcus aureus [17] was found to be 8 µg/mL (≈ 7.17 µM); in the experiment on Staphylococcus aureus [18], 8 µg/mL (≈ 7.17 µM); against Enterococcus faecium [19], 16 µg/mL (≈ 14.3 µM); in experiment [20], 4 µg/mL (≈ 3.59 µM); with Staphylococcus aureus [21], 8 µg/mL (≈ 7.17 µM); against Streptococcus pneumoniae [22], 32 µg/mL (≈ 28.7 µM). Also, the MIC with Streptococcus agalactiae was determined as 32 µg/mL (≈ 28.7 µM); in experiment [23], 8 µg/mL (≈ 7.17 µM); in the experiment with Staphylococcus aureus [24], 8 µg/mL (≈ 7.17 µM); in the experiment on Staphylococcus aureus [25], 8 µg/mL (≈ 7.17 µM); against Streptococcus, 16 µg/mL (≈ 14.3 µM); with Enterococcus sp. it was 8 µg/mL (≈ 7.17 µM). The MIC is 64 µg/mL (≈ 57.4 µM) against Enterococcus faecium [26]; 64 µg/mL (≈ 57.4 µM) in the experiment with Enterococcus faecalis [27]; 2 µg/mL (≈ 1.79 µM) in the experiment on Micrococcus luteus; 32 µg/mL (≈ 28.7 µM) against Streptococcus pneumoniae [28]; 32 µg/mL (≈ 28.7 µM) against Enterococcus faecalis [29]; 32 µg/mL (≈ 28.7 µM) against Enterococcus faecalis [30]. In the experiment on Staphylococcus aureus [31], the MIC was 8 µg/mL (≈ 7.17 µM).
As for `C[C@@H](c1ccccc1)[C@@H]1NC(=O)CNC(=O)[C@H](CO)NC(=O)[C@@H]([C@@H](O)[C@@H]2CN=C(N)N2[C@H]2O[C@H](CO)[C@@H](O)[C@H](O)[C@@H]2O)NC(=O)[C@H]([C@H](O)[C@@H]2CN=C(N)N2)NC(=O)[C@@H](Cc2ccc(O)cc2)NC1=O`, the MIC in the experiment on Enterococcus sp. stood at 32 µg/mL (≈ 33 µM); in the experiment on Staphylococcus aureus [32], 64 µg/mL (≈ 65.9 µM).
